These results are taken from patent publication US20230159527A1, “COMPOUNDS AS BCL-2 INHIBITORS” (Fochon Pharmaceuticals, Ltd., priority 2020, published 2023).

Molecules are shown by their SMILES.

One test has as its system Toledo cells. In words: Cell proliferation assay, Toledo cells (MTS, 72 h). It is filed as cell-based. The conditions noted are these: Homo sapiens, Toledo cells, MTS, read-out: Toledo IC50. An outline of the steps: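 Toledo cells (30000/well, RPMI-1640 with 10% FBS) were preincubated for 4 h. They were then exposed to nine compound concentrations from 10000 to 1.5 nM for 72 h at 37 °C, 5% CO2. MTS was added for 2 h and absorbance read at 490 nm to give IC50.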

The next test concerns RS4;11-BCL-2 G101V cells. In words: Cell proliferation assay, engineered RS4;11 cells stably overexpressing BCL-2 G101V (MTS, 168 h). The format is cell-based. The conditions noted are these: Homo sapiens, RS4-11, 168 h, read-out: RS4, 11 BCL2- G101V. On the procedure: MTS testing kit was purchased from Promega (Madison, Wis., USA). The RPMI-1640, Fetal bovine serum and Penicillin-Streptomycin were purchased from BI (Biological Industries, Beit Haemek, Israel). Puromycin was purchased from Beyotime (shanghai, China). Dimethyl sulfoxide (DMSO) was purchased from Sigma (St. Louis, Mo., USA). RS4;1l-BCL-2 G101V and RS4;11-BCL-2 F104L cells were cultured in RPM11640 supplemented with 1 ug/mL puromycin, 100 U/mL Penicillin-Streptomycin and 10% FBS.
To investigate whether a compound is able to inhibit the activity of BCL-2 mutation in cells, a mechanism-based assay using engineered cell lines stably overexpressing BCL-2 mutation ([…] and […]) was developed. In this assay, the inhibition of BCL-2 mutation was reflected by the inhibition of cell proliferation of RS4;11-BCL-2 G101V and RS4;11-BCL-2 F104L cells. Cells were plated into 96-well plates at optimized cell density (RS4;11-BCL-2 G101V: 5000 cells/well; RS4;11-BCL-2 F104L: 5000 cells/well). Plates were incubated at 37° C., with 5% CO2 for 4 h. Compounds were serially diluted to the final-concentrations of 10000, 3333.3, 1111.1, 370.4, 123.5, 41.2, 13.7, 4.6 and 1.4 nM and added to the plates. Plates were incubated at 37° C., with 5% CO2 for 168 h. 20 μl MTS was added into each well and the plates were incubated at 37° C., with 5% CO2 exactly for 2 h. The absorbance was measured by a microplate reader at 490 nm. IC50 values were calculated using GraphPad Prism 5.0 software.

`CC(C)c1ccccc1[C@@H]1CCC[C@@H]1N1CC2(CCN(c3ccc(C(=O)NS(=O)(=O)c4cc5c(c([N+](=O)[O-])c4)N[C@@H]([C@H]4CC[C@](C)(O)CC4)CO5)c(Oc4cc5cc[nH]c5nc4Cl)c3)CC2)C1` (single isomer, unassigned) [Example D-101, 2-((6-chloro-1H-pyrrolo2,3-b]pyridin-5-yl)oxy)-N-(((S)-3-((1r,4S)-4-hydroxy-4-methylcyclohexyl)-5-nitro-3,4-dihydro-2H-benzo[b] [1,4]oxazin-7-yl)sulfonyl)-4-(2-((1S,2S or 1R,2R)-2-(2-isopropylphenyl)cyclopentyl)-2,7-diazaspiro[3.5] nonan-7-yl)benzamide]: the IC50 with Toledo cells came to 1 nM; with RS4;11-BCL-2 G101V cells it was 19 nM.

For `CC(C)c1ccccc1[C@@H]1CCCN1C1CC2(CCN(c3ccc(C(=O)NS(=O)(=O)c4cc5c(c([N+](=O)[O-])c4)N[C@@H]([C@H]4CC[C@](C)(O)CC4)CO5)c(Oc4cc5cc[nH]c5nc4OCCN4CCOCC4)c3)CC2)C1` (single isomer, unassigned) [Example D-63, N-(((S)-3-((1r,4S)-4-hydroxy-4-methylcyclohexyl)-5-nitro-3,4-dihydro-2H-benzo[b][1,4]oxazin-7-yl)sulfonyl)-4-(2-((R or S)-2-(2-isopropylphenyl)pyrrolidin-1-yl)-7-azaspiro[3.5]nonan-7-yl)-2-((6-(2-morpholinoethoxy)-1H-pyrrolo[2,3-b]pyridin-5-yl)oxy) benzamide], the IC50 with Toledo cells and in the test with RS4;11-BCL-2 G101V cells was 1 nM in each case.

With `CNCCOc1nc2[nH]ccc2cc1Oc1cc(N2CCC3(CC2)CC(N2CCC[C@H]2c2ccccc2C(C)C)C3)ccc1C(=O)NS(=O)(=O)c1cc2c(c([N+](=O)[O-])c1)N[C@@H]([C@H]1CC[C@](C)(O)CC1)CO2` (single isomer, unassigned) [Example D-59, N-(((S)-3-((1r,4S)-4-hydroxy-4-methylcyclohexyl)-5-nitro-3,4-dihydro-2H-benzo[b][1,4]oxazin-7-yl)sulfonyl)-4-(2-((R or S)-2-(2-isopropylphenyl)pyrrolidin-1-yl)-7-azaspiro[3.5]nonan-7-yl)-2-((6-(2-(methylamino)ethoxy)-1H-pyrrolo[2,3-b]pyridin-5-yl)oxy)benzamide], the IC50 in the test with Toledo cells was determined as 1 nM; in the test with RS4;11-BCL-2 G101V cells it was 15 nM.

For `CC(C)c1ccccc1[C@@H]1CCCN1C1CC2(CCN(c3ccc(C(=O)NS(=O)(=O)c4cc5c(c([N+](=O)[O-])c4)N[C@@H]([C@H]4CC[C@](C)(O)CC4)CO5)c(Oc4cc5cc[nH]c5nc4O[C@H]4CCN(C)C4)c3)CC2)C1` (single isomer, unassigned) [Example D-226, N-(((S)-3-((1r,4S)-4-hydroxy-4-methylcyclohexyl)-5-nitro-3,4-dihydro-2H-benzo[b][1,4]oxazin-7-yl)sulfonyl)-4-(2-((R or S)-2-(2-isopropylphenyl)pyrrolidin-1-yl)-7-azaspiro[3.5]nonan-7-yl)-2-((6-(((5)-1-methylpyrrolidin-3-yl)oxy)-1H-pyrrolo[2,3-b]pyridin-5-yl)oxy)benzamide], the IC50 was determined as 1 nM with Toledo cells and 13 nM with RS4;11-BCL-2 G101V cells.

Consider `CC(C)c1ccccc1[C@@H]1CN(C(=O)C2CC2)CCN1C1CC2(CCN(c3ccc(C(=O)NS(=O)(=O)c4cc5c(c([N+](=O)[O-])c4)N[C@@H]([C@H]4CC[C@](C)(O)CC4)CO5)c(Oc4cnc5[nH]cc(F)c5c4)c3)CC2)C1` (single isomer, unassigned) [Example D-82, 4-(2-((R or S)-4-(cyclopropanecarbonyl)-2-(2-isopropylphenyl)piperazin-1-yl)-7-azaspiro[3.5]nonan-7-yl)-2-((3-fluoro-1H-pyrrolo[2,3-b]pyridin-5-yl)oxy)-N-(((S)-3-((1r,4S)-4-hydroxy-4-methylcyclohexyl)-5-nitro-3,4-dihydro-2H-benzo[b][1,4]oxazin-7-yl)sulfonyl)benzamide], for which the IC50 in the test with Toledo cells came to 1 nM; in the test with RS4;11-BCL-2 G101V cells, 19 nM.

With `COCCOc1nc2[nH]ccc2cc1Oc1cc(N2CCC3(CC2)CN([C@H]2CCC[C@H]2c2ccccc2C(C)C)C3)ccc1C(=O)NS(=O)(=O)c1cc2c(c([N+](=O)[O-])c1)N[C@@H]([C@H]1CC[C@](C)(O)CC1)CO2` (racemic) [Example D-75a, N-(((S)-3-((1r,4S)-4-hydroxy-4-methylcyclohexyl)-5-nitro-3,4-dihydro-2H-benzo[b][1,4]oxazin-7-yl)sulfonyl)-4-(2-((1S,2S and 1R,2R)-2-(2-isopropylphenyl)cyclopentyl)-2,7-diazaspiro[3.5]nonan-7-yl)-2-((6-(2-methoxyethoxy)-1H-pyrrolo[2,3-b]pyridin-5-yl)oxy) benzamide], the IC50 was 1 nM in the test with Toledo cells and 4 nM in the test with RS4;11-BCL-2 G101V cells.

With `CCOc1nc2[nH]ccc2cc1Oc1cc(N2CCC3(CC2)CN([C@H]2CCC[C@H]2c2ccccc2C(C)C)C3)ccc1C(=O)NS(=O)(=O)c1cc2c(c([N+](=O)[O-])c1)N[C@@H]([C@H]1CC[C@](C)(O)CC1)CO2` (single isomer, unassigned) [Example D-98, 2-((6-ethoxy-1H-pyrrolo[2,3-b]pyridin-5-yl)oxy)-N-((S)-3-((1r,4S)-4-hydroxy-4-methylcyclohexyl)-5-nitro-3,4-dihydro-2H-benzo[b] [1,4]oxazin-7-yl)sulfonyl)-4-(2-((1S,2S or 1R,2R)-2-(2-isopropylphenyl)cyclopentyl)-2,7-diazaspiro[3.5]nonan-7-yl)benzamide], the IC50 in the test on Toledo cells and in the test with RS4;11-BCL-2 G101V cells was 1 nM each time.

For `CC(C)c1ccccc1[C@@H]1CCC[C@@H]1N1CC2(CCN(c3ccc(C(=O)NS(=O)(=O)c4cc5c(c([N+](=O)[O-])c4)N[C@@H]([C@H]4CC[C@](C)(O)CC4)CO5)c(Oc4cc5c(F)c[nH]c5nc4Cl)c3)CC2)C1` (single isomer, unassigned) [Example D-106, 2-((6-chloro-3-fluoro-1H-pyrrolo [2,3-b]pyridin-5-yl)oxy)-N-(((S)-3-((1r,4S)-4-hydroxy-4-methylcyclohexyl)-5-nitro-3,4-dihydro-2H-benzo[b][1,4]oxazin-7-yl)sulfonyl)-4-(2-((1S,2S or 1R,2R)-2-(2-isopropylphenyl)cyclopentyl)-2,7-diazaspiro[3.5]nonan-7-yl)benzamide], the IC50 with Toledo cells was 1 nM; in the test on RS4;11-BCL-2 G101V cells, 14 nM.

Consider `COc1nc2[nH]ccc2cc1Oc1cc(N2CCC3(CC2)CN([C@H]2CCC[C@H]2c2ccccc2C(C)C)C3)ccc1C(=O)NS(=O)(=O)c1cc2c(c([N+](=O)[O-])c1)N[C@@H]([C@H]1CC[C@](C)(O)CC1)CO2` (single isomer, unassigned) [Example D-97, N-(((S)-3-((1r,4S)-4-hydroxy-4-methylcyclohexyl)-5-nitro-3,4-dihydro-2H-benzo[b][1,4]oxazin-7-yl)sulfonyl)-4-(2-((1S,2S or 1R,2R)-2-(2-isopropylphenyl)cyclopentyl)-2,7-diazaspiro[3.5]nonan-7-yl)-2-((6-methoxy-1H-pyrrolo [2,3-b]pyridin-5-yl)oxy)benzamide], for which the IC50 worked out at 1 nM in the test on Toledo cells and 12 nM with RS4;11-BCL-2 G101V cells.
